Results from article PMC11239830, “Synthetic macrolides overcoming MLSBK-resistant pathogens” (Cell Discovery, 2024).
Values after ≈ are worked out from the molar mass of the structure shown. Like-named read-outs stand apart in the source and are kept apart here.

Key:
Test in all cases: MIC, broth microdilution
[1] = tested on: S. aureus; type: cell-based, Staphylococcus aureus
Description: (§1) MICs were determined by the microdilution method according to the Clinical and Laboratory Standards Institute guidelines. […] Finally, the 96-well plates were incubated at 37 °C for 16–20 h to observe and record the results. […] The assay for MICs was replicated at least three times.

[2] = tested on: S. pneumoniae; type: cell-based, Streptococcus pneumoniae
Description: as §1

[3] = tested on: S. pyogenes; type: cell-based, Streptococcus pyogenes; conditions: S. pyogenes 12-206, c-ermTR
Description: as §1

[4] = tested on: H. influenzae; type: cell-based, Haemophilus influenzae
Description: as §1

[5] = Staphylococcus aureus, S. aureus 15B196, c-ermB, read-out: MIC
[6] = Staphylococcus aureus, S. aureus PU32, i-ermA, read-out: MIC
[7] = Streptococcus pneumoniae, ATCC49619, S. pneumoniae ATCC49619, Ery-S, read-out: MIC
[8] = Streptococcus pneumoniae, S. pneumoniae 07P390, c-ermB, read-out: MIC
[9] = Streptococcus pneumoniae, S. pneumoniae PU09, mef, read-out: MIC
[10] = Streptococcus pyogenes, read-out: MIC
[11] = Haemophilus influenzae, ATCC49247, H. influenzae ATCC49247, Azi-S, read-out: MIC

| MIC ([1]; S. aureus 15B196, c-ermB) | MIC ([1]; S. aureus PU32, i-ermA) | MIC ([2]; S. pneumoniae 07P390, c-ermB) | MIC ([2]; S. pneumoniae ATCC49619, Ery-S) | MIC ([2]; S. pneumoniae PU09, mef) | MIC [3] | MIC ([4]; H. influenzae ATCC49247, Azi-S) | MIC [1, 5] | MIC [1, 6] | MIC [2, 7] | MIC [2, 8] | MIC [2, 9] | MIC [3, 10] | MIC [4, 11] | SMILES |
| --- | --- | --- | --- | --- | --- | --- | --- | --- | --- | --- | --- | --- | --- | --- |
| 256 µg/mL (≈ 253 µM) | 8 µg/mL (≈ 7.92 µM) | 0.5 µg/mL (≈ 0.495 µM) | 0.016 µg/mL (≈ 0.0158 µM) | 0.12 µg/mL (≈ 0.119 µM) | 2 µg/mL (≈ 1.98 µM) | 16 µg/mL (≈ 15.8 µM) |  |  |  |  |  |  |  | CC[C@H]1OC(=O)[C@H](C)[C@@H](OC(=O)NCCNCCC#Cc2ccc3c(=O)c(C(=O)O)cn(C4CC4)c3c2)[C@H](C)[C@@H](O[C@@H]2O[C@H](C)C[C@H](N(C)C)[C@H]2O)[C@](C)(OC)C[C@@H](C)C(=NOC)[C@H](C)[C@H]2OC(=O)O[C@@]21C [74c] |
|  |  |  |  |  |  |  | 64 µg/mL (≈ 65.3 µM) | 4 µg/mL (≈ 4.08 µM) | 0.016 µg/mL (≈ 0.0163 µM) | 0.12 µg/mL (≈ 0.122 µM) | 0.06 µg/mL (≈ 0.0612 µM) | 2 µg/mL (≈ 2.04 µM) | 16 µg/mL (≈ 16.3 µM) | CC[C@H]1OC(=O)[C@H](C)[C@@H](OC(=O)NCCCCCC#Cc2ccc3c(=O)c(C(=O)O)cn(C4CC4)c3c2)[C@H](C)[C@@H](O[C@@H]2O[C@H](C)C[C@H](N(C)C)[C@H]2O)[C@](C)(OC)C[C@@H](C)C(=O)[C@H](C)[C@H]2OC(=O)O[C@@]21C [79c] |
|  |  |  |  |  |  |  | 64 µg/mL (≈ 65.4 µM) | 1 µg/mL (≈ 1.02 µM) | ≤ 0.008 µg/mL | 0.06 µg/mL (≈ 0.0613 µM) | 0.03 µg/mL (≈ 0.0306 µM) | 1 µg/mL (≈ 1.02 µM) | 8 µg/mL (≈ 8.17 µM) | CC[C@H]1OC(=O)[C@H](C)[C@@H](OC(=O)NCCCCCC#Cc2ccc3c(=O)c(C(=O)O)cn(C4CC4)c3c2)[C@H](C)[C@@H](O[C@@H]2O[C@H](C)C[C@H](N(C)C)[C@H]2O)[C@](C)(OC)C[C@@H](C)C(=O)[C@H](C)[C@H]2NC(=O)O[C@@]21C [87c] |
|  |  |  |  |  |  |  | > 256 µg/mL | 8 µg/mL (≈ 8.54 µM) | 0.5 µg/mL (≈ 0.534 µM) | > 256 µg/mL | 1 µg/mL (≈ 1.07 µM) | 128 µg/mL (≈ 137 µM) | 128 µg/mL (≈ 137 µM) | CC[C@H]1OC(=O)[C@H](C)[C@@H](OC(=O)NCCCCCCC#Cc2ccc3cc(C(=O)O)cnc3c2)[C@H](C)[C@@H](O[C@@H]2O[C@H](C)C[C@H](N(C)C)[C@H]2O)[C@](C)(OC)C[C@@H](C)C(=O)[C@H](C)[C@H]2NC(=O)O[C@@]21C [88j] |
|  |  |  |  |  |  |  | 128 µg/mL (≈ 134 µM) | 8 µg/mL (≈ 8.38 µM) | 0.12 µg/mL (≈ 0.126 µM) | 1 µg/mL (≈ 1.05 µM) | 0.5 µg/mL (≈ 0.523 µM) | 1 µg/mL (≈ 1.05 µM) | 16 µg/mL (≈ 16.8 µM) | CC[C@H]1OC(=O)[C@H](C)[C@@H](OC(=O)NCCCOCCC#Cc2ccc3c(=O)c(C(=O)O)c[nH]c3c2)[C@H](C)[C@@H](O[C@@H]2O[C@H](C)C[C@H](N(C)C)[C@H]2O)[C@](C)(OC)C[C@@H](C)C(=O)[C@H](C)[C@H]2NC(=O)O[C@@]21C [95i] |
|  |  |  |  |  |  |  | > 256 µg/mL | 64 µg/mL (≈ 68.1 µM) | 1 µg/mL (≈ 1.06 µM) | > 256 µg/mL | 8 µg/mL (≈ 8.52 µM) | 128 µg/mL (≈ 136 µM) | 128 µg/mL (≈ 136 µM) | CC[C@H]1OC(=O)[C@H](C)[C@@H](OC(=O)NCCCOCCC#Cc2ccc3cc(C(=O)O)cnc3c2)[C@H](C)[C@@H](O[C@@H]2O[C@H](C)C[C@H](N(C)C)[C@H]2O)[C@](C)(OC)C[C@@H](C)C(=O)[C@H](C)[C@H]2NC(=O)O[C@@]21C [95j] |
| 512 µg/mL (≈ 537 µM) | 64 µg/mL (≈ 67.1 µM) | 128 µg/mL (≈ 134 µM) | 0.25 µg/mL (≈ 0.262 µM) | 1 µg/mL (≈ 1.05 µM) | 64 µg/mL (≈ 67.1 µM) | 8 µg/mL (≈ 8.39 µM) |  |  |  |  |  |  |  | CC[C@H]1OC(=O)[C@H](C)[C@@H](OC(=O)NCCCC#Cc2ccc3c(=O)c(C(=O)O)cn(C4CC4)c3c2)[C@H](C)[C@@H](O[C@@H]2O[C@H](C)C[C@H](N(C)C)[C@H]2O)[C@](C)(O)C[C@@H](C)CN(C)[C@H](C)[C@H]2OC(=O)O[C@@]21C [108c] |
| 256 µg/mL (≈ 265 µM) | 32 µg/mL (≈ 33.1 µM) | 256 µg/mL (≈ 265 µM) | 1 µg/mL (≈ 1.03 µM) | 2 µg/mL (≈ 2.07 µM) | 128 µg/mL (≈ 132 µM) | 32 µg/mL (≈ 33.1 µM) |  |  |  |  |  |  |  | CC[C@H]1OC(=O)[C@H](C)[C@@H](OC(=O)NCCCCC#Cc2ccc3c(c2)c(=O)c(C(=O)O)cn3C2CC2)[C@H](C)[C@@H](O[C@@H]2O[C@H](C)C[C@H](N(C)C)[C@H]2O)[C@](C)(O)C[C@@H](C)CN(C)[C@H](C)[C@H]2OC(=O)O[C@@]21C [109a] |
| 256 µg/mL (≈ 261 µM) | 16 µg/mL (≈ 16.3 µM) | 256 µg/mL (≈ 261 µM) | 1 µg/mL (≈ 1.02 µM) | 2 µg/mL (≈ 2.04 µM) | 512 µg/mL (≈ 522 µM) | 32 µg/mL (≈ 32.6 µM) |  |  |  |  |  |  |  | CC[C@H]1OC(=O)[C@H](C)[C@@H](OC(=O)NCCCCCC#Cc2ccc3c(c2)c(=O)c(C(=O)O)cn3C2CC2)[C@H](C)[C@@H](O[C@@H]2O[C@H](C)C[C@H](N(C)C)[C@H]2O)[C@](C)(O)C[C@@H](C)CN(C)[C@H](C)[C@H]2OC(=O)O[C@@]21C [110a] |
| 128 µg/mL (≈ 130 µM) | 4 µg/mL (≈ 4.08 µM) | 1 µg/mL (≈ 1.02 µM) | 0.016 µg/mL (≈ 0.0163 µM) | 0.06 µg/mL (≈ 0.0611 µM) | 2 µg/mL (≈ 2.04 µM) | 8 µg/mL (≈ 8.15 µM) |  |  |  |  |  |  |  | CC[C@H]1OC(=O)[C@H](C)[C@@H](OC(=O)NCCCCCC#Cc2ccc3c(=O)c(C(=O)O)cn(C4CC4)c3c2)[C@H](C)[C@@H](O[C@@H]2O[C@H](C)C[C@H](N(C)C)[C@H]2O)[C@](C)(O)C[C@@H](C)CN(C)[C@H](C)[C@H]2OC(=O)O[C@@]21C [110c] |
| 128 µg/mL (≈ 129 µM) | 32 µg/mL (≈ 32.2 µM) | 256 µg/mL (≈ 257 µM) | 0.5 µg/mL (≈ 0.502 µM) | 2 µg/mL (≈ 2.01 µM) | 128 µg/mL (≈ 129 µM) | 16 µg/mL (≈ 16.1 µM) |  |  |  |  |  |  |  | CC[C@H]1OC(=O)[C@H](C)[C@@H](OC(=O)NCCCCCCC#Cc2ccc3c(c2)c(=O)c(C(=O)O)cn3C2CC2)[C@H](C)[C@@H](O[C@@H]2O[C@H](C)C[C@H](N(C)C)[C@H]2O)[C@](C)(O)C[C@@H](C)CN(C)[C@H](C)[C@H]2OC(=O)O[C@@]21C [111a] |
| 16 µg/mL (≈ 16.1 µM) | 4 µg/mL (≈ 4.02 µM) | 0.5 µg/mL (≈ 0.502 µM) | ≤ 0.008 µg/mL | ≤ 0.008 µg/mL | 2 µg/mL (≈ 2.01 µM) | 8 µg/mL (≈ 8.04 µM) |  |  |  |  |  |  |  | CC[C@H]1OC(=O)[C@H](C)[C@@H](OC(=O)NCCCCCCC#Cc2ccc3c(=O)c(C(=O)O)cn(C4CC4)c3c2)[C@H](C)[C@@H](O[C@@H]2O[C@H](C)C[C@H](N(C)C)[C@H]2O)[C@](C)(O)C[C@@H](C)CN(C)[C@H](C)[C@H]2OC(=O)O[C@@]21C [111c] |
| 512 µg/mL (≈ 521 µM) | 128 µg/mL (≈ 130 µM) | 512 µg/mL (≈ 521 µM) | 4 µg/mL (≈ 4.07 µM) | 8 µg/mL (≈ 8.14 µM) | 512 µg/mL (≈ 521 µM) | 64 µg/mL (≈ 65.1 µM) |  |  |  |  |  |  |  | CC[C@H]1OC(=O)[C@H](C)[C@@H](OC(=O)NCCOCCC#Cc2ccc3c(c2)c(=O)c(C(=O)O)cn3C2CC2)[C@H](C)[C@@H](O[C@@H]2O[C@H](C)C[C@H](N(C)C)[C@H]2O)[C@](C)(O)C[C@@H](C)CN(C)[C@H](C)[C@H]2OC(=O)O[C@@]21C [116a] |
| 512 µg/mL (≈ 521 µM) | 32 µg/mL (≈ 32.5 µM) | 4 µg/mL (≈ 4.07 µM) | 0.12 µg/mL (≈ 0.122 µM) | 1 µg/mL (≈ 1.02 µM) | 8 µg/mL (≈ 8.14 µM) | 8 µg/mL (≈ 8.14 µM) |  |  |  |  |  |  |  | CC[C@H]1OC(=O)[C@H](C)[C@@H](OC(=O)NCCOCCC#Cc2ccc3c(=O)c(C(=O)O)cn(C4CC4)c3c2)[C@H](C)[C@@H](O[C@@H]2O[C@H](C)C[C@H](N(C)C)[C@H]2O)[C@](C)(O)C[C@@H](C)CN(C)[C@H](C)[C@H]2OC(=O)O[C@@]21C [116c] |
| 512 µg/mL (≈ 513 µM) | 32 µg/mL (≈ 32.1 µM) | 512 µg/mL (≈ 513 µM) | 1 µg/mL (≈ 1 µM) | 2 µg/mL (≈ 2.01 µM) | 512 µg/mL (≈ 513 µM) | 32 µg/mL (≈ 32.1 µM) |  |  |  |  |  |  |  | CC[C@H]1OC(=O)[C@H](C)[C@@H](OC(=O)NCCCOCCC#Cc2ccc3c(c2)c(=O)c(C(=O)O)cn3C2CC2)[C@H](C)[C@@H](O[C@@H]2O[C@H](C)C[C@H](N(C)C)[C@H]2O)[C@](C)(O)C[C@@H](C)CN(C)[C@H](C)[C@H]2OC(=O)O[C@@]21C [117a] |
